According to article PMC9851200, “Multiparameter phenotypic screening for endogenous TFEB and TFE3 translocation identifies novel chemical series modulating lysosome function” (Autophagy, 2022):
Where two headings read alike, the source gives them in different places.

What was measured:
SH-SY5Y cells [1] = assay: Nuclear count from microscopy images (cellular growth and toxicity); conditions: PKIS2 primary screening; further: reference of the scale not given here
endogenous TFEB = assay: TFEB nuclear translocation, immunocytochemistry high-content imaging; assay type: cell-based; conditions: PKIS2 primary screening
SH-SY5Y cells [2] = assay: AK (adenylate kinase) release ToxiLight cytotoxicity assay; conditions: PKIS2 primary screening; further: reference of the scale not given here
SH-SY5Y cells [3] = conditions: PKIS2 primary screening
Excerpt: The PKIS2 Library was supplied by The Structural Genomics Consortium at the University of North Carolina at Chapel Hill.

endogenous TFE3 = assay: TFE3 nuclear translocation, immunocytochemistry high-content imaging; assay type: cell-based; conditions: PKIS2 primary screening
SH-SY5Y cells [4] = assay: Chemotype enrichment analysis of PKIS2 primary screen hit categories; conditions: PKIS2 primary screening, hit category
Wherever DQ Intensity is given: reference of the scale not given here.
Wherever DQ Spot is given: reference of the scale not given here.

SMILES | Nuclear Count (SH-SY5Y cells [1]) | TFEB % (endogenous TFEB) [%] | AK (SH-SY5Y cells [2]) | DQ Intensity (SH-SY5Y cells [3]; DQ Red BSA intensity) | DQ Spot (SH-SY5Y cells [3]; DQ Red BSA spot count) | TFE3 % (endogenous TFE3) [%] | Outcome (SH-SY5Y cells [4]) | DQ Intensity (SH-SY5Y cells [3]) | DQ Spot (SH-SY5Y cells [3])
CC(C)NCC(Cc1ccccc1)NC(=O)c1cc(Br)c(-c2ccnc3[nH]ccc23)s1.Cl.Cl (centres unmarked) [UNC10225078A] | 95.97 | 25.83 | 109.26 | 114.59 | 48.43 | 47.42 | LYSO TOXIC | – | –
COc1cc2nccc(Nc3cccc(Oc4ccccc4)c3)c2cc1OC.Cl [UNC10225170A] | 91.34 | 18.56 | 71.46 | 93.52 | 79.85 | 29.93 | TFEB/TFE3 | – | –
CCNCC(Cc1ccccc1)NC(=O)c1cc(Br)c(-c2ccnc3[nH]ccc23)s1.Cl.Cl (centres unmarked) [UNC10225436A] | 80.17 | 20.72 | 108.80 | 185.61 | 102.66 | 35.73 | DQ / TFEB/TFE3 | – | –
Cl.Cl.NC[C@H](CC1CCCCC1)NC(=O)c1ccc(-c2ccnc3[nH]ccc23)s1 [UNC10225041A] | 83.64 | 14.98 | 135.71 | 229.52 | 72.59 | 16.73 | TFEB + DQ Int | – | –
Fc1cc(Cl)ccc1Nc1ccnc2cc(-c3ccc(CN4CCOCC4)o3)ccc12 [UNC10225106A] | 98.32 | 10.01 | 77.69 | 127.02 | 67.74 | 18.79 | LYSO TOXIC | – | –
COc1cc2nccc(Nc3ccc(NC(=O)c4ccc(C)cc4)c(O)c3)c2cc1OC.Cl [UNC10225013A] | 63.58 | 33.18 | 100.53 | 86.65 | 65.59 | 46.99 | LYSO TOXIC | – | –
c1ccc(Oc2ccc(Nc3ccnc4cc(-c5ccc(CN6CCCCC6)o5)ccc34)cc2)nc1 [UNC10225094A] | 127.56 | 15.03 | 71.77 | 89.29 | 45.68 | 31.67 | LYSO TOXIC | – | –
Cl.Cn1ccc(-c2cccc(Nc3ccnc4cc(-c5nccs5)ccc34)c2)n1 [UNC10225141A] | 43.03 | 12.07 | 174.83 | 161.91 | 66.27 | 26.05 | TOXIC | – | –
Nc1ncc(-c2ccc3nccc(-c4ccncc4)c3c2)cc1S(=O)(=O)N1CCOCC1 [UNC10225011A] | 96.85 | 0.58 | 92.69 | 150.72 | 94.12 | 1.48 | DQ Only | – | –
Cc1cccc2c(-c3ccncc3)c(-c3ccc(F)cc3)nn12.Cl [UNC10225316A] | 85.13 | 5.61 | 93.04 | 71.88 | 91.98 | 21.03 | TFE3 | – | –
CN(C)Cc1ccc(-c2ccc3c(Nc4ccc(Oc5ccccn5)cc4)ccnc3c2)o1 [UNC10225428A] | 92.33 | 28.26 | 81.74 | 85.61 | 47.88 | 34.27 | LYSO TOXIC | – | –
CN(C)CCOc1ccc(-c2cc(-c3ccc(Cl)c(O)c3)c(-c3ccncc3)[nH]2)cc1.Cl.Cl [UNC10225395A] | 86.70 | 15.65 | 117.96 | 71.39 | 40.46 | 46.41 | LYSO TOXIC | – | –
COc1cc(Nc2ccnc3cc(-c4ccncc4)ccc23)cc(OC)c1OC.Cl [UNC10225049A] | 54.75 | 12.84 | 108.07 | 164.74 | 83.88 | 16.25 | DQ Only | – | –
CC(=O)Nc1ccc(COc2ccc(Nc3ccnc4cc(-c5ccccn5)ccc34)cc2)cc1.Cl [UNC10225390A] | 89.28 | 19.19 | 71.40 | 42.39 | 42.67 | 50.24 | LYSO TOXIC | – | –
Nc1nc(-c2cccnc2)c(-c2ccnc3ccccc23)s1 [UNC10225309A] | 71.32 | 13.96 | 67.30 | 115.27 | 134.42 | 14.98 | DQ and TFEB | – | –
Cl.c1ccc(-c2ccc3c(Nc4ccc5[nH]ccc5c4)ccnc3c2)nc1 [UNC10225345A] | 89.15 | 8.10 | 157.00 | 44.66 | 42.49 | 38.32 | TOXIC | – | –
COc1cc2ncnc(Nc3ccc4nc(-c5ccccc5)[nH]c4c3)c2cc1OC.Cl [UNC10225504A] | 107.73 | 2.24 | 94.98 | 98.46 | 113.89 | 30.79 | TFE3 | – | –
N#Cc1cnc2cc(-c3cnc(CNCCN4CCOCC4)s3)ccc2c1Nc1ccc(Oc2ccccc2)cc1 [UNC10225079A] | 110.49 | 5.31 | 71.03 | 48.97 | 51.66 | 6.45 | LYSO TOXIC | – | –
c1ccc(Oc2ccc(Nc3ccnc4ccc(-c5ccccn5)cc34)cc2)cc1 [UNC10225215A] | 111.99 | 9.01 | 106.19 | 94.87 | 78.82 | 13.98 | LYSO TOXIC | – | –
Cc1ccn2nc(-c3ccc(F)cc3)c(-c3ccncc3)c2c1.Cl [UNC10224989A] | 114.75 | 29.24 | 121.47 | 96.51 | 106.96 | 6.03 | TFEB | – | –
COc1cccc(-c2cc(-c3c[nH]nc3-c3ccccn3)ccn2)c1 [UNC10225448A] | 116.22 | 6.19 | 109.46 | 60.35 | 69.14 | 7.93 | LYSO TOXIC | – | –
O=C(c1ccc(-c2cc(-c3c[nH]nc3-c3ccccn3)ccn2)cc1)N1CCOCC1 [UNC10225421A] | 121.31 | 4.79 | 76.85 | 150.15 | 98.06 | 13.41 | DQ Only | – | –
Cl.c1ccc(Oc2ccc(Nc3ccnc4cc(-c5ccc(CN6CCNCC6)o5)ccc34)cc2)nc1 [UNC10225130B] | 88.02 | 17.19 | 101.15 | 87.94 | 55.20 | 38.53 | LYSO TOXIC | – | –
CS(=O)(=O)CCNCc1ccc(-c2ccc3ncnc(Nc4ccc(OCc5ccccc5)c(Cl)c4)c3c2)o1.Cl [UNC10112604A] | 96.24 | 8.74 | 78.47 | 133.51 | 89.48 | 24.66 | TFE3 | – | –
Cl.Cl.NCC(C(=O)Nc1cc(Br)c(-c2ccnc3[nH]ccc23)s1)c1ccccc1 (centres unmarked) [UNC10225027A] | 108.23 | 6.97 | 80.33 | 115.17 | 95.94 | 26.86 | TFE3 | – | –
COc1cc2nccc(Nc3ccc(Oc4ccccc4)cc3)c2cc1OC.Cl [UNC10225483A] | 95.56 | 23.88 | 74.22 | 58.49 | 52.29 | 50.12 | LYSO TOXIC | – | –
Cc1ccc(C)c(NC(=O)Nc2ccc(C)c(-c3ccc(C(=O)Nc4ccncc4)cc3)c2)c1 [UNC10225228A] | 105.64 | 7.17 | 74.48 | – | – | 10.54 | – | 84.26 | 79.30
CN1CCC(n2cnc(-c3ccc(F)cc3)c2-c2ccnc(NC3CCNCC3)n2)CC1 [UNC10225443A] | 105.97 | 5.73 | 75.10 | – | – | 14.45 | – | 104.65 | 93.05
O=C(NC1CCN(c2ccnc(Nc3ccc(F)cc3)n2)C1)c1cc2ccccc2s1 (centres unmarked) [GSK1379716] | 86.00 | 2.96 | 79.19 | 72.95 | 96.75 | 24.94 | – | – | –
NC(=O)c1cc(-c2ccccc2)cc2c(C3CCNCC3)c[nH]c12 [UNC10225015A] | 93.78 | 3.89 | 102.13 | – | – | 15.20 | – | 84.06 | 101.36
